Each compound was assayed against T1, FLuc-C-HiBiT (Photinus pyralis, UniProt P08659) (assay: biochemical). Settings: enzyme activity, 10 uM ATP; read-out: IC50 or SDR50 (mM) / FLuc E.
T1 construct: firefly luciferase with C-terminal HiBiT tag, E. coli expressed
T1 sequence (P08659 whole entry, looked up): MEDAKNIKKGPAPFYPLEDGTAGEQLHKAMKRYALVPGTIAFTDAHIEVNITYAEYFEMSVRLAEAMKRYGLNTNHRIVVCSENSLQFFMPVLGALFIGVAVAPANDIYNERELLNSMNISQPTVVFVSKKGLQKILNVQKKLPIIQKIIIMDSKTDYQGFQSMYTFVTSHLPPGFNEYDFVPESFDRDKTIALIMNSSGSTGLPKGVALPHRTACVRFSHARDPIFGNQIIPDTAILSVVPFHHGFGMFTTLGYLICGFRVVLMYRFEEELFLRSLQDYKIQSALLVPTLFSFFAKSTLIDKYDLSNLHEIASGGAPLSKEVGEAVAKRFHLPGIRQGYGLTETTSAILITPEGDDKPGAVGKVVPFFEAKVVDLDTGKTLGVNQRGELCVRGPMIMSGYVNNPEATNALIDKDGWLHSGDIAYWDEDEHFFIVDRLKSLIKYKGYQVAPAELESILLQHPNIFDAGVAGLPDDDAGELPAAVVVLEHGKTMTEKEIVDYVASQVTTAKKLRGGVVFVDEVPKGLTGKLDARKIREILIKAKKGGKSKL

Compound	IC50
Cn1ccnc1CN1C(=O)CO[C@H](c2ccc(NC(=O)Nc3ccccc3)cc2)[C@H]1CO [NCGC00396650-01]	0.014 mM
CC(C)(C)c1ccc(C(=O)Nc2ccc([C@H]3OCC(=O)N[C@@H]3CO)cc2)cc1 [NCGC00396656-01]	0.0161 mM
Cc1ccc2oc([C@H]3CCN(Cc4cccs4)C3)nc2c1 [NCGC00397825-01]	0.018 mM
CC(=O)N[C@@H]1C=C[C@@H](c2c(C)nn(-c3ccc(C(C)(C)C)cc3)c2C)C1 [NCGC00397882-01]	0.018 mM
O=C([C@@H]1C[C@@H](O)[C@H](O)[C@@H]2NC(=S)N(c3ccc4c(c3)OCO4)[C@@H]21)N1CCOCC1 [NCGC00397934-01]	0.0143 mM
Cc1ccc2[nH]c([C@H]3CCN(Cc4cccs4)C3)nc2c1 [NCGC00397946-01]	0.0202 mM
CCNC(=O)N[C@@H]1C=C[C@@H](c2c(C)nn(-c3ccc(C(F)(F)F)cc3)c2C)C1 [NCGC00397974-01]	0.0143 mM
COc1ccc(C(=O)Nc2ccc3n(c2=O)C[C@H]2C[C@@H]3CN(C(=O)CCCC(=O)O)C2)cc1 [NCGC00397987-01]	0.0157 mM
O=C(Nc1ccccc1)Nc1ccc2n(c1=O)C[C@H]1C[C@@H]2CN(C(=O)c2ccccc2)C1 [NCGC00397999-01]	0.018 mM
O=C(Nc1cccc(F)c1)Nc1ccc2n(c1=O)C[C@H]1C[C@@H]2CN(C(=O)c2ccc(F)cc2)C1 [NCGC00398007-01]	0.007 mM
C[C@H](C(=O)NCCN1CCOCC1)C1CC[C@@]2(C)Cc3sc(CSc4ccccc4)nc3[C@@H](C)[C@@H]2[C@H]1O (stereo partly drawn) [NCGC00398276-01]	0.0124 mM
COc1ccc(-c2ccc3c(c2)C(=O)N2CC[C@H](NC(=O)c4cccc(F)c4)[C@H]2C(=O)N3)cc1 [NCGC00399389-01]	0.00989 mM
CC(C)c1ccc(NC(=O)O[C@@H]2CO[C@H]3[C@@H]2OC[C@@H]3N[S+](=O)([O-])c2cccs2)cc1 [NCGC00399549-01]	0.00881 mM
CCNC(=O)N[C@@H]1C=C[C@@H](c2c(C)nn(-c3ccc(C(C)C)cc3)c2C)C1 [NCGC00399948-01]	0.00286 mM
Cc1nn(-c2ccc(C(C)C)cc2)c(C)c1[C@@H]1C=C[C@@H](NC(=O)NC(C)C)C1 [NCGC00399949-01]	0.018 mM
Cc1ccc(-n2nc(C)c([C@@H]3C=C[C@@H](NC(=O)NC(C)C)C3)c2C)cc1Cl [NCGC00399958-01]	0.0143 mM
Cc1ccc(-n2nc(C)c([C@@H]3C=C[C@@H](NC(=O)NCc4ccccc4)C3)c2C)cc1Cl [NCGC00399961-01]	0.018 mM
Cc1ccc(-n2nc(C)c([C@@H]3C=C[C@@H](NC(=O)Nc4ccc(Cl)cc4)C3)c2C)cc1Cl [NCGC00400070-01]	0.00989 mM
Cc1nn(-c2ccc(C(C)(C)C)cc2)c(C)c1[C@@H]1C=C[C@@H](NC(=O)CCCC(=O)O)C1 [NCGC00400254-01]	0.0202 mM
Cc1nn(-c2ccc(C(C)(C)C)cc2)c(C)c1[C@@H]1C=C[C@@H](NC(=O)COCC(=O)O)C1 [NCGC00400262-01]	0.0202 mM
COc1ccc(-n2nc(C)c([C@@H]3C=C[C@@H](NC(=O)Nc4cccc(C#N)c4)C3)c2C)cc1 [NCGC00400336-01]	0.018 mM
CC(=O)N[C@@H]1C=C[C@@H](c2c(C)nn(-c3ccc(C(F)(F)F)cc3)c2C)C1 [NCGC00400353-01]	0.0161 mM
COc1ccc(CN2C[C@H](O)C[C@H]2c2nc(-c3ccc(OC)cc3)no2)cc1 [NCGC00400669-01]	0.0143 mM
COc1ccc(-c2noc([C@@H]3C[C@@H](O)CN3Cc3cccs3)n2)cc1 [NCGC00400674-01]	0.0202 mM
COc1ccc(-c2noc([C@@H]3C[C@@H](O)CN3Cc3cc4ccccc4o3)n2)cc1 [NCGC00400688-01]	0.0161 mM
CN1C[C@@H](N[S+](=O)([O-])c2ccc(C#N)cc2)C[C@H]1c1nc(-c2ccc(Cl)cc2)no1 [NCGC00400957-01]	0.0111 mM

Compound	IC50
CSCC(=O)Nc1nc2c(s1)C[C@]1(C)CC[C@@H]3[C@H](OC(=O)[C@H]3C)[C@H]1[C@@H]2C [NCGC00401416-01]	0.00453 mM
C[C@H](C(=O)N1CCCC1)C1CC[C@@]2(C)Cc3sc(-c4ccccc4)nc3[C@@H](C)[C@@H]2[C@H]1O (stereo partly drawn) [NCGC00401417-01]	0.00197 mM
C[C@@H]1C(=O)O[C@H]2[C@H]1CC[C@@]1(C)Cc3sc(NC(=O)c4ccncc4)nc3[C@@H](C)[C@H]21 [NCGC00401418-01]	0.00057 mM
CN(Cc1ccccc1)C(=O)[C@H]1C[C@@H](O)[C@H](O)[C@@H]2N=C(Nc3ccc(-n4cccn4)cc3)S[C@@H]21 [NCGC00401585-01]	0.0111 mM
Cc1nn(-c2cccc(Br)c2)c(C)c1[C@@H]1C=C[C@@H](NC(=O)CC(C)(C)CC(=O)O)C1 [NCGC00401591-01]	> 0.03 mM
COc1ccc(C(=O)N[C@@H]2CN(C(=O)Nc3ccc(OC(F)(F)F)cc3)CCC[C@H]2O)cc1 [NCGC00401608-01]	0.0111 mM
Cc1ccc(-n2nc(C)c([C@H]3C=C[C@@H](OC(=O)Nc4cccc(C(F)(F)F)c4)C3)c2C)cc1Cl [NCGC00401611-01]	> 0.03 mM
Cc1ccc(-n2nc(C)c([C@@H]3C=C[C@@H](NC(=O)COCC(=O)O)C3)c2C)cc1Cl [NCGC00401616-01]	> 0.03 mM
Cc1nn(-c2ccc(C(C)C)cc2)c(C)c1[C@@H]1C=C[C@@H](NC(=O)COCC(=O)O)C1 [NCGC00401626-01]	0.0202 mM
Cc1ccc(-c2noc([C@@H]3Cc4[nH]cnc4CN3C(=O)Nc3cccc(F)c3)n2)cc1 [NCGC00401633-01]	0.0202 mM
COc1ccc(-c2noc([C@@H]3Cc4[nH]cnc4CN3C(=O)Nc3ccc(Cl)cc3)n2)cc1 [NCGC00401634-01]	> 0.03 mM
Cc1cc(-c2nc3cc(F)ccc3s2)ccc1N [NCGC00402259-04]	0.00111 mM
O=C1Cc2c(-c3cccc4ccccc34)n[nH]c2CN1CCOc1ccccc1 [NCGC00409142-01]	0.018 mM
COc1cccc(-c2csc(CN3CCCC(C)(NC(C)=O)C3)c2)c1 (stereo not drawn) [NCGC00410342-01]	0.0202 mM
COc1ccc(-c2ccc(CN3CC(C)(NC(C)=O)C3)s2)cn1 [NCGC00410343-01]	0.0202 mM
CC1(NC(=O)C2CC2)CN(Cc2nc(-c3cccc(F)c3)cs2)C1 [NCGC00410350-01]	0.0202 mM
CC(=O)NC1(C)CN(Cc2ccc(-c3ccc(Oc4ccccc4)cc3)s2)C1 [NCGC00410351-01]	0.0255 mM
CC(=O)NC1(C)CCN(Cc2cccc(-c3ccc4ccccc4c3)c2)C1 (stereo not drawn) [NCGC00410355-01]	0.0114 mM
CC1(NC(=O)C2CC2)CN(Cc2nc(-c3ccccc3)cs2)C1 [NCGC00410376-01]	0.0202 mM
CC1(NC(=O)C2CC2)CN(Cc2nc(-c3ccccc3OCc3ccccc3)cs2)C1 [NCGC00410379-01]	0.0161 mM
CC(=O)NC1(C)CCN(Cc2ccc(-c3ccc4c(ccn4C)c3)cc2)C1 (stereo not drawn) [NCGC00410408-01]	0.00718 mM
CC(=O)NC1(C)CCN(Cc2cccc(-c3ccc4c(ccn4C)c3)c2)C1 (stereo not drawn) [NCGC00410415-01]	0.0101 mM
CC(=O)NC1(C)CN(Cc2ccc(-c3ccc4c(ccn4C)c3)s2)C1 [NCGC00410429-01]	0.00286 mM
CC(=O)NC1(C)CN(Cc2ccc(-c3ccccc3OCc3ccccc3)s2)C1 [NCGC00410438-01]	0.0227 mM
COc1cccc(Nc2ccc(CN3CCC(C)(NC(C)=O)C3)cc2)c1 (stereo not drawn) [NCGC00410471-01]	0.0202 mM
COCCN1CCNc2cc(-c3cccc(OC)c3)ncc2C1 [NCGC00411013-01]	0.0202 mM

Compound	IC50
Oc1cccc(-c2cc3c(cn2)CN(Cc2cccnc2)CCN3)c1 [NCGC00411023-01]	0.0227 mM
COc1cccc(CN2CCNc3cc(-c4ccnc(C)c4)ncc3C2)c1 [NCGC00411029-01]	0.018 mM
COc1ccc(-c2cc3c(cn2)CN(Cc2cccnc2)CCN3)cc1F [NCGC00411039-01]	0.0143 mM
Cc1cc(-c2cc3c(cn2)CN(Cc2ccccc2O)CCN3)ccn1 [NCGC00411040-01]	0.018 mM
OCc1cccc(-c2cc3c(cn2)CN(Cc2ccccc2)CCN3)c1 [NCGC00411045-01]	0.018 mM
Cc1cc(-c2cc3c(cn2)CN(Cc2nccn2C)CCN3)ccn1 [NCGC00411046-01]	0.0161 mM
c1cncc(Nc2cc3c(cn2)CN(Cc2cc[nH]n2)CCN3)c1 [NCGC00411048-01]	0.018 mM
c1ccc(Nc2cc3c(cn2)CN(CC2CCOC2)CCN3)cc1 (stereo not drawn) [NCGC00411051-01]	0.0202 mM
CC(C)CN1CCNc2cc(-c3ccccc3)ncc2C1 [NCGC00411061-01]	0.0226 mM
Oc1ccccc1CN1CCNc2cc(-c3ccccc3)ncc2C1 [NCGC00411063-01]	0.0161 mM
COc1cccc(Nc2cc3c(cn2)CN(C)CCN3)c1 [NCGC00411064-01]	0.0226 mM
CC(=O)N1CCNc2cc(-c3ccccc3F)ncc2C1 [NCGC00411070-01]	0.0285 mM
Cc1cc(-c2cc3c(cn2)CN(CC(C)C)CCN3)ccn1 [NCGC00411077-01]	0.0161 mM
CN1CCNc2cc(-c3ccc([S+](C)(=O)[O-])cc3)ncc2C1 [NCGC00411079-01]	> 0.03 mM
COc1ccc(CN2CCNc3cc(Nc4ccccc4)ncc3C2)cn1 [NCGC00411080-01]	0.018 mM
CC(=O)N1CCNc2cc(Nc3ccc(F)cc3)ncc2C1 [NCGC00411083-01]	0.0057 mM
c1ccc(Nc2cc3c(cn2)CN(Cc2ccsc2)CCN3)cc1 [NCGC00411091-01]	0.0143 mM
Clc1cccc(Nc2cc3c(cn2)CN(Cc2cccnc2)CCN3)c1 [NCGC00411094-01]	0.0128 mM
COc1cccc(Nc2cc3c(cn2)CN(C(C)=O)CCN3)c1 [NCGC00411096-01]	0.00904 mM
Clc1ccc(-c2cc3c(cn2)CN(Cc2ccncc2)CCN3)cc1 [NCGC00411101-01]	0.0161 mM
COc1ccc(-c2cc3c(cn2)CN(Cc2cccnc2)CCN3)cc1OC [NCGC00411110-01]	0.0143 mM
c1ccc(Nc2cc3c(cn2)CN(Cc2cc[nH]n2)CCN3)cc1 [NCGC00411115-01]	0.0161 mM
COCCN1CCNc2cc(Nc3cccc(OC)c3)ncc2C1 [NCGC00411124-01]	0.018 mM
COc1ccc(-c2cc3c(cn2)CN(C(C)=O)CCN3)cc1 [NCGC00411126-01]	0.0128 mM
Cn1ccnc1CN1CCNc2cc(Nc3ccccc3)ncc2C1 [NCGC00411128-01]	0.0161 mM
COc1cccc(Nc2cc3c(cn2)CN(Cc2cccnc2)CCN3)c1 [NCGC00411131-01]	0.0101 mM

Source: article PMC12064818, “A general assay platform to study protein pharmacology using ligand-dependent structural dynamics” (Nature Communications, 2025)
